From patent US12286401B2, “Small molecules that sensitize HIV-1 infected cells to antibody dependent cellular cytotoxicity” (THE TRUSTEES OF THE UNIVERSITY OF PENNSYLVANIA, priority 2018, dated 2025)

Tests used:
[1] = system: CH58TF infected primary CD4+ T-cells; assay: HIV+ patient sera/plasma recognition of CH58TF infected primary CD4+ T-cells (flow cytometry cell-surface staining); format: cell-based, HIV-1; settings: for recognition of infected cells by plasma from 15 HIV-1-infected individuals: 50 μM, 1:1000 diluted HIV+ plasma, result in words; for fold induction at 50 µM: Human immunodeficiency virus 1, T-cell, read-out: Fold Over DMSO (patient sera, n = 3)
How it was run: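 Primary CD4+ T cells from PBMC infected with HIV-1 CH58TF for 48 h, then surface-stained with 1:1000 HIV+ plasma or 5 μg/ml 17b plus 50 μM MCG analogs or DMSO; Alexa Fluor 647 anti-human IgG detection by flow cytometry, infected cells gated p24+. Values are fold change over DMSO.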

[2] = system: primary CD4+ T cells infected with CH58 TF; assay: FACS-based ADCC assay with patient sera/plasma; format: cell-based, HIV-1; settings: for ADCC responses against infected cells: 50 μM, 1/1,000 dilution of plasma from 15 HIV-1-infected individuals, result in words; for fold induction at 50 µM: Human immunodeficiency virus 1, CD4+ T, read-out: Fold over DMSO (% ADCC with ps, n = 3)
Protocol: Measurement of antibody or serum-mediated ADCC is performed with a FACS-based assay as described in Prevost, “Influence of the Envelope gp120 Phe 43 Cavity on HIV-1 Sensitivity to Antibody-Dependent Cell-Mediated Cytotoxicity Responses,” 2017, J. Virol 91; Richard, “CD4 mimetics sensitize HIV-1-infected cells to ADCC,” 2015, Proc. Natl. Acad. Sci. USA, 112:E2687-2694; Richard, “Small CD4 Mimetics Prevent HIV-1 Uninfected Bystander CD4+ T Cell Killing Mediated by Antibody-dependent Cell-mediated Cytotoxicity,” 2016, EBioMedicine 3:122-134; Veillette, “The HIV-1 gp120 CD4-Bound Conformation Is Preferentially Targeted by Antibody-Dependent Cellular Cytotoxicity-Mediating Antibodies in Sera from HIV-1-Infected Individuals,” 2015, J. Virol., 89:545-551; Veillette, “Interaction with cellular CD4 exposes HIV-1 envelope epitopes targeted by antibody-dependent cell-mediated cytotoxicity,” 2014, J. Virol., 88:2633-2644; Richard, “Uninfected Bystander Cells Impact the Measurement of HIV-Specific Antibody-Dependent Cellular Cytotoxicity Responses,” 2018, MBio. 9(2): e00358-18; Richard, “BST-2 Expression Modulates Small CD4-Mimetic Sensitization of HIV-1-Infected Cells to Antibody-Dependent Cellular Cytotoxicity,” 2017, J. Virol. 91(11):e00219-17. This assay specifically measures ADCC activity against productively infected cells and is not affected by the confounding effect of uninfected bystander cells. See, Richard, “Uninfected Bystander Cells Impact the Measurement of HIV-Specific Antibody-Dependent Cellular Cytotoxicity Responses,” 2018, MBio., 9(2): e00358-18.
Briefly, primary CD4+ T cells isolated from healthy HIV-1-negative individuals or CEM-NKr cells are infected with HIV viruses. Forty-eight hours post-infection, cells are incubated with autologous PBMC (effector:target cell ratio of 10:1) in the presence of 1:1000 HIV+ sera dilution or anti-Env Abs (5 μg/mL) alone or in combination with increasing concentration of MCG analogs. Infected cells are identified by intracellular staining for HIV-1 p24 or GFP expression (for GFP expressing infectious molecular clones) and the percentage of cytotoxicity is calculated the following formula as described.
For cells infected with HIV-1 primary isolates, infected cells are identified by intracellular staining for HIV-1 p24. In that context, the percentage of cytotoxicity is calculated with the following formula by gating infected lived target cells: […]
The ADCC susceptibility of primary CD4+ T cells infected with CH58 TF mediated by HIV+ plasma+/−MCG analogs also was evaluated using a FACS-based assay as previously reported. See, Ding, 2016, J Virol., 90:2127-2134; and Richard, 2018, MBio 9.
Briefly, Primary CD4 T cells isolated from PBMC were infected with HIV-1CH58TF for 48 hours. For cell surface staining, 5 μg/ml 17b (FIG. 15A) or 1:1000 diluted HIV+ plasma (n=15) (FIG. 15B) were used in the presence of the different MCG analogs (50 μM), (+)-BNM-III-170 or with an equivalent volume of vehicle (DMSO). An Alexa Fluor 647-conjugated anti-human IgG secondary Ab was then used for fluorescent labeling. For ADCC (FIG. 15C), infected cells were used as target cells in a FACS-based ADCC assay that measures the killing of infected (p24+ cells). See, Madani, 2016, J. Virol., 90:5031-5046. The assay determines susceptibility to ADCC mediated by a 1/1,000 dilution of plasma from 15 HIV-1-infected individuals in the presence of the different MCG analogs (50 μM), (+)-BNM-III-170 (50 μM) or with an equivalent volume of vehicle (DMSO). Correlation between cell-surface staining with HIV+ plasma and ADCC was calculated using the Spearman rank correlation (FIG. 15D).

[3] = Solubility in PBS; format: physicochemical; settings: Yes/NO
[4] = system: CH58TF infected primary CD4+ T-cells; assay: Recognition of HIV-1 infected cells by 17b (flow cytometry cell-surface staining); format: cell-based; settings: for recognition of infected cells by the anti-CoRBS 17b antibody: 50 μM, 5 μg/ml 17b, result in words; for fold induction at 50 µM: Human immunodeficiency virus 1, T-cell, read-out: Fold Over DMSO (17b, n = 1)
How it was run: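 Primary CD4+ T cells infected 48 h with HIV-1 CH58TF, stained with 5 μg/ml 17b plus MCG analogs (50 μM), (+)-BNM-III-170 or DMSO vehicle. Detection by Alexa Fluor 647 anti-human IgG secondary and flow cytometry. Infected cells gated as p24+ living cells.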

Row | Compound | recognition of infected cells by plasma from 15 HIV-1-infected individuals [1] | fold induction at 50 µM [1] | ADCC responses against infected cells [2] | fold induction at 50 µM [2] | Solubility (in PBS) [3] | recognition of infected cells by the anti-CoRBS 17b antibody [4] | fold induction at 50 µM [4]
1 | COC(=O)N1CCC[C@H](C(=O)Nc2ccc(Cl)c(F)c2)C1 [(S)-MCG-III-188-A01] | enhanced the recognition of infected cells | 2.69 | enhanced ADCC responses | 2.27 | Yes | enhanced the recognition of infected cells | 7.11
2 | CS(=O)(=O)N1CCC[C@H](C(=O)Nc2cccc(C(F)(F)F)c2)C1 [(S)-MCG-III-027-B04] | – | 1.47 | – | 0.129 | Yes | – | 1.01
3 | CS(=O)(=O)N1CCC[C@H](C(=O)Nc2ccc(Br)cc2)C1 [(S)-MCG-III-027-A02] | – | 2.08 | – | 0.291 | Yes | – | 1.65
4 | CCCNC(=O)N1CCC[C@H](C(=O)Nc2ccc(Cl)c(F)c2)C1 [(S)-MCG-IV-031-A05] | enhanced the recognition of infected cells | – | enhanced ADCC responses | – | – | enhanced the recognition of infected cells | –
5 | CCOC(=O)N1CCC[C@H](C(=O)Nc2ccc(Cl)c(F)c2)C1 [(S)-MCG-III-188-A02] | enhanced the recognition of infected cells | 3.83 | enhanced ADCC responses | 0.867 | Yes | enhanced the recognition of infected cells | 6.35
6 | CS(=O)(=O)N1CCC[C@H](C(=O)Nc2cccc(Cl)c2)C1 [(S)-MCG-III-027-B01] | – | 1.37 | – | 0.87 | Yes | – | 1.04
7 | CS(=O)(=O)N1CCC[C@H](C(=O)Nc2ccccc2Cl)C1 [(S)-MCG-III-027-C01] | – | 1.06 | – | 0.722 | Yes | – | 1.14
8 | Cn1cnc(S(=O)(=O)N2CCCC(C(=O)Nc3ccc(Cl)c(F)c3)C2)c1 (stereo not drawn) [MCG-III-157-B04] | – | 2.4 | – | 1.73 | Yes | – | –
9 | COc1cccc(NC(=O)[C@H]2CCCN(S(C)(=O)=O)C2)c1 [(S)-MCG-III-027-B05] | – | 1.71 | – | 0.361 | Yes | – | 1.03
10 | CS(=O)(=O)N1CCC[C@H](C(=O)Nc2cccc(F)c2)C1 [(S)-MCG-III-027-B03] | – | 1.44 | – | 1.17 | Yes | – | 1.05
11 | CS(=O)(=O)N1CCC[C@H](C(=O)Nc2ccc(Cl)c(F)c2)C1 [(S)-MCG-III-027-D05] | enhanced the recognition of infected cells | 2.83 | enhanced ADCC responses | 1.01 | Yes | enhanced the recognition of infected cells | 2.22
12 | O=C(Nc1ccc(Cl)c(F)c1)C1CCCN(S(=O)(=O)c2ccccc2)C1 (stereo not drawn) [MCG-III-157-B03] | – | 3.73 | – | 1.94 | – | – | –
13 | CS(=O)(=O)N1CCC[C@H](C(=O)Nc2ccc(F)cc2F)C1 [(S)-MCG-III-027-D04] | – | 1.24 | – | 1.37 | Yes | – | 1.17
14 | CS(=O)(=O)N1CCC[C@H](C(=O)Nc2ccc(F)cc2)C1 [(S)-MCG-III-027-A03] | – | 1.52 | – | 0.969 | Yes | – | 1.12
15 | CCS(=O)(=O)N1CCC[C@H](C(=O)Nc2ccc(Cl)c(F)c2)C1 [(S)-MCG-III-085-C01] | – | 3.28 | – | 0.487 | Yes | – | 5.7
16 | NCCNC(=O)N1CCC[C@H](C(=O)Nc2ccc(Cl)c(F)c2)C1 [(S)-MCG-IV-210] | enhanced the recognition of infected cells | – | enhanced ADCC responses | – | – | enhanced the recognition of infected cells | –
17 | O=C(Nc1ccc(Cl)c(F)c1)C1CCCOC1 (stereo not drawn) [MCG-III-207] | – | 1.92 | – | 1.59 | Yes | – | 3.69
18 | Cn1cnc(S(=O)(=O)N2CCC[C@H](C(=O)Nc3ccc(Cl)c(F)c3)C2)c1 [(S)-MCG-III-116-A02] | – | 1.97 | – | 1.86 | – | – | –
19 | CS(=O)(=O)N1CCC[C@H](C(=O)Nc2cccc(Br)c2)C1 [(S)-MCG-III-027-B02] | – | 1.62 | – | 0.74 | Yes | – | 1.06
